Measured values from ChEMBL document CHEMBL1127958, “Dual metalloprotease inhibitors. III. utilization of bicyclic and monocyclic diazepinone based mercaptoacetyls” (Bioorg Med Chem Lett, 1994).

Key:
Rattus norvegicus = assay: In vivo effective dose against angiotensin I induced pressor response after intravenous administration in normotensive rats; type: functional
Neprilysin = Neprilysin (Homo sapiens, UniProt P08473); assay: In vitro inhibitory activity against neutral endopeptidase (NEP) was determined; conditions: read-out: I50
Sequence of Neprilysin (P08473 whole entry): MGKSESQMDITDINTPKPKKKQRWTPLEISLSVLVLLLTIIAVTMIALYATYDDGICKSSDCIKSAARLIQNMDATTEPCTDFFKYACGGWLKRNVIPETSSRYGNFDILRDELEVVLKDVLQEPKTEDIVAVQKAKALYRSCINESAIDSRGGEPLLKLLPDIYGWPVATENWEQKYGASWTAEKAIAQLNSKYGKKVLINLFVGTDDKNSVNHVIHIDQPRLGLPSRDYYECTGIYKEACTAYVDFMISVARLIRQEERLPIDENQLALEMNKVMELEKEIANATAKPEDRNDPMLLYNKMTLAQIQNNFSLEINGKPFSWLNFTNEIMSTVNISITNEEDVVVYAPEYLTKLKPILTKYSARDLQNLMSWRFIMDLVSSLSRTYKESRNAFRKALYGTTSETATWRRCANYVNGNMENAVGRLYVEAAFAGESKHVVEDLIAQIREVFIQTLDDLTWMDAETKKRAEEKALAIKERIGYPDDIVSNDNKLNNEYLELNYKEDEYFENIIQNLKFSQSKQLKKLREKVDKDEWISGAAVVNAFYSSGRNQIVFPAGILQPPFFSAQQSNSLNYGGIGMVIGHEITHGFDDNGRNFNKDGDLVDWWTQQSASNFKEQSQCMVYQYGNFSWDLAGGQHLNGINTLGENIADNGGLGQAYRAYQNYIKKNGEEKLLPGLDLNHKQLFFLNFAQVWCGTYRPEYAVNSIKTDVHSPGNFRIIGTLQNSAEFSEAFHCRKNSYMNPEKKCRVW

[1] = target: Angiotensin-converting enzyme (Rattus norvegicus) (UniProt P47820); assay: In vitro inhibitory activity against angiotensin converting enzyme (ACE) in rat was determined; conditions: read-out: I50
Sequence of Angiotensin-converting enzyme (Rattus norvegicus) (P47820 whole entry, looked up): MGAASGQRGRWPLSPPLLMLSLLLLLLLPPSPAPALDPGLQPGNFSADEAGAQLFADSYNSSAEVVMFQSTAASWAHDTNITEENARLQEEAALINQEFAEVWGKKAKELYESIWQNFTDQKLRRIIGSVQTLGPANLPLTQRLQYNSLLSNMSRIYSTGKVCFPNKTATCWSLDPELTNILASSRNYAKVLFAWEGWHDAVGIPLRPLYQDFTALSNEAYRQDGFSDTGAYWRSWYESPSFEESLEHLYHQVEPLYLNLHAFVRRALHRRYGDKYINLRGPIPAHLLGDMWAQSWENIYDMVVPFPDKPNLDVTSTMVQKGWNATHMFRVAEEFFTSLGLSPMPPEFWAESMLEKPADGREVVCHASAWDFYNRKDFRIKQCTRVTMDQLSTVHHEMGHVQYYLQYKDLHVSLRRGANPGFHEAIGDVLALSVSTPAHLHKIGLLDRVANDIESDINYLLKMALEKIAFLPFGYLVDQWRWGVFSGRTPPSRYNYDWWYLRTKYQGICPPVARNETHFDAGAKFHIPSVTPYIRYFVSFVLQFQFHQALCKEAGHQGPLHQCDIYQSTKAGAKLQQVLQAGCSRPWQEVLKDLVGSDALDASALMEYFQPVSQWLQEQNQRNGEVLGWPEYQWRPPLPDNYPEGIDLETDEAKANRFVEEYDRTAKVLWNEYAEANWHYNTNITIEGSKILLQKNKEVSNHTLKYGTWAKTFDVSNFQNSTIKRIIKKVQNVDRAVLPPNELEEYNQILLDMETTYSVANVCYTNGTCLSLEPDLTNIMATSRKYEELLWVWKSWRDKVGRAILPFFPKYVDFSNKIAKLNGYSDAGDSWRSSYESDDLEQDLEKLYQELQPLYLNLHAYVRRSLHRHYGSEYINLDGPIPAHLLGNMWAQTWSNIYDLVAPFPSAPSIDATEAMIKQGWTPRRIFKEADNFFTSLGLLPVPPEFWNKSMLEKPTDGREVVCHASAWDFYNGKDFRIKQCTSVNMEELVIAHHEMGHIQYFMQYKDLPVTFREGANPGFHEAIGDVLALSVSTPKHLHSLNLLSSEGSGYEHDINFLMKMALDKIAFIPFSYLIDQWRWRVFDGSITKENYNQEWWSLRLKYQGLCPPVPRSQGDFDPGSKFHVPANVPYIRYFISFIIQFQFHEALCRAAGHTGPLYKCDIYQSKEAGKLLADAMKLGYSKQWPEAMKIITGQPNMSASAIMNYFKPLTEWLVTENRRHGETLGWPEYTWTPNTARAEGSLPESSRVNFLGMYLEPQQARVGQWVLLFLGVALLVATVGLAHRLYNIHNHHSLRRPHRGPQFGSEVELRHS

SMILES	ED50 (Rattus norvegicus) [µmol/kg]	IC50 (Neprilysin) [µM]	IC50 [1] [µM]
CN1C(=O)CC[C@H](NC(=O)[C@@H](S)Cc2ccccc2)C(=O)N1CC(=O)O	0.13	0.055	
CN1CCC[C@H](NC(=O)[C@@H](S)Cc2ccccc2)C(=O)N1CC(=O)O		0.484	
CCCN1C(=O)CC[C@H](NC(=O)[C@@H](S)Cc2ccccc2)C(=O)N1CC(=O)O		1.92	
O=C(O)CN1C(=O)[C@@H](NC(=O)[C@@H](S)Cc2ccccc2)CCc2ccccc21	0.02		0.012
O=C(N[C@H]1CCCN2CCC[C@@H](C(=O)O)N2C1=O)[C@@H](S)Cc1ccccc1	0.01	0.003	
CCCN1CCC[C@H](NC(=O)[C@@H](S)Cc2ccccc2)C(=O)N1CC(=O)O		1.49	
O=C(O)CN1NCCC[C@H](NC(=O)[C@@H](S)Cc2ccccc2)C1=O		0.486	
O=C(N[C@H]1CCC(=O)N2CC[C@@H](C(=O)O)N2C1=O)[C@@H](S)Cc1ccccc1		0.14	
O=C(N[C@H]1CCC(=O)N2CCC[C@@H](C(=O)O)N2C1=O)[C@@H](S)Cc1ccccc1	0.23	0.016	
O=C(N[C@H]1CCCN2CC[C@@H](C(=O)O)N2C1=O)[C@@H](S)Cc1ccccc1	0.12	0.022	
